Data on one compound can be found in patent US20120088694A1, “CELL ASSAY METHODS AND ARTICLES” (NanoInk, Inc., priority 2010, published 2012).

The test system of the test is NIH 3T3 fibroblasts. Put plainly: Fibroblast spreading and migration on fibronectin patterns with PEG hydrogel delivering compound. It is filed as cell-based. As to the method: An exemplary method is described here for patterning cells onto surfaces using direct deposition of extracellular matrix (ECM) proteins and for delivering multiple compounds to individual cells. First, actin polymerization and stress fiber formation was followed over a 2 hour time period. Second, multiple ECM proteins were patterned on the same substrate and side-by-side analysis of single cells was done to characterize differential responses. Finally, polyethylene glycol with or without Cytochalasin-D (250 μM or 500 μM) was delivered to individual cells. A method was established for single cell analysis with multiple compounds on the same substrate. The NLP 2000 (NanoInk, Inc., Skokie, Ill.) fabrication system was used for patterning of ECM proteins and hydrogel composites. After approximately 4 hours, substrates were rinsed and non-specific cell binding is blocked with a solution of bovine serum albumin. NIH 3T3 fibroblasts (ATCC) were added at high density for 30 minutes, at which point non-adherent cells are washed and removed. Complete media was then added for between 0.5 and 3.5 hours before paraformaldehyde fixation, staining and analysis. Cells attach to approximately 75% of the patterns deposited onto glass surfaces. Cell morphology was controlled and actin polymerization was more developed with more elongated stress fibers at 2 hours versus earlier time points. […] Combinatorial experimentation is increasingly important with regard to the cellular microenvironment.
A mixture of PEG-DMA, 4-arm PEG thiol, and Cytochalasin D, a compound of interest, is patterned onto an epoxy-coated glass slide. After curing with UV, fibronectin, an ECM protein, was patterned onto the glass slide around the cured hydrogel. In a control hydrogel pattern, only PEG-DMA and 4-arm PEG thiol, but not any compound of interest, were used for fabricating the hydrogel.
Subsequently, 3T3 fibroblasts were plated onto the glass slide with PEG and fibronectin as described above. […] FIGS. 11 and 12 show the time course following spreading and migration of fibroblasts over a period of 4 hours.

Where [1] appears, read: cells cultured for 2 hours, Cytochalasin D in the PEG hydrogel vs control hydrogel, 15 patterns per group.

`C=C1[C@@H](C)[C@H]2[C@H](Cc3ccccc3)NC(=O)[C@]23[C@H](OC(C)=O)/C=C/[C@@](C)(O)C(=O)[C@@H](C)C/C=C/[C@H]3[C@@H]1O` [Cytochalasin D]: the “migration of fibroblasts from the fibronectin patterned area” value (250 and 500 μM in PEG hydrogel, time course over 4 hours, vs PEG without CytoD) is given as “prevented migration of fibroblasts from the fibronectin patterned area”. The “cell spreading and migration” value (Cytochalasin-D (250 μM or 500 μM) delivered in PEG hydrogel to individual cells) was “decline in cell spreading and migration”. For the same compound, under setting [1], the “number of cells on patterns (images, average fluorescence intensity)” value is reported as “significantly fewer cells” and the “spreading and/or migration away from the patterns” value was “less spreading and/or migration away from the patterns”.
